Measured values published in patent US20060142336A1, “N-sulfonylpiperidines as metalloproteinase inhibitors (tace)” (priority 2002, published 2006).

Key:
[1] = target: T1, proTNFα convertase enzyme (TACE) (Homo sapiens, UniProt P78536); experiment: partially purified isolated enzyme assay for proTNFα convertase (TACE) inhibition; format: biochemical; conditions: 10 μM of compound; enzyme from membranes of THP-1
T1 construct: a partially purified, isolated enzyme assay, the enzyme being obtained from the membranes of THP-1; endogenous in cells; host or cells: THP-1 cell membranes (partially purified)
Protocol: Recombinant human proMMP13 may be expressed and purified as described by Knauper et al. [V. Knauper et al., (1996) […] 271:1544-1550 (1996)]. […] Activity is determined by measuring the fluorescence at λex 328 nm and λem 393 nm. Percent inhibition is calculated as follows: % Inhibition is equal to the [Fluorescenceplus inhibitor−Fluorescencebackground] divided by the [Fluorescenceminus inhibitor−Fluorescencebackground].
The ability of the compounds to inhibit proTNFα convertase enzyme (TACE) may be assessed using a partially purified, isolated enzyme assay, the enzyme being obtained from the membranes of THP-1 as described by K. M. Mohler et al., (1994) Nature 370:218-220. The purified enzyme activity and inhibition thereof is determined by incubating the partially purified enzyme in the presence or absence of test compounds using the substrate 4′,5′-Dimethoxy-fluoresceinyl Ser.Pro.Leu.Ala.Gln.Ala.Val.Arg.Ser.Ser.Ser.Arg.Cys(4-(3-succinimid-1-yl)-fluorescein)-NH2 in assay buffer (50 mM Tris HCl, pH 7.4 containing 0.1% (w/v) Triton X-100 and 2 mM CaCl2), at 26° C. for 4 hours. The amount of inhibition is determined as for MMP13 except λex 485 nm and λem 538 nm were used. […]

T1 sequence (P78536 215-824): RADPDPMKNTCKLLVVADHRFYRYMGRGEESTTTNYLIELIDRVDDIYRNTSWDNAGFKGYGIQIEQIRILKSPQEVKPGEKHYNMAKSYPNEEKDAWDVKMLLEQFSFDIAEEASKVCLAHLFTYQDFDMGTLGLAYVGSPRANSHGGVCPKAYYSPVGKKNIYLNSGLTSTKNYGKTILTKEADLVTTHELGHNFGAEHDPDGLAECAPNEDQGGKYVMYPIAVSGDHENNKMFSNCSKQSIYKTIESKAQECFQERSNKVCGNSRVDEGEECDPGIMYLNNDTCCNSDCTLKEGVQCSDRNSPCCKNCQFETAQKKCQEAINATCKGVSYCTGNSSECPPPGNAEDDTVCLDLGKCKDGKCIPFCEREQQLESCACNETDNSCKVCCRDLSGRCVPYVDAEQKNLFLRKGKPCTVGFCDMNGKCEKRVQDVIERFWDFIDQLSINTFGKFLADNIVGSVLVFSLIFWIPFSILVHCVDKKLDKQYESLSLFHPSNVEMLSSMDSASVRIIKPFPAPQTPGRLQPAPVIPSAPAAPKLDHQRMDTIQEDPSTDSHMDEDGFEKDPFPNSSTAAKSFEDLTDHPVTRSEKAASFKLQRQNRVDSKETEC

SMILES | inhibition at 10 µM [1] | melting point
Cc1ccc(COC2CCN(S(=O)(=O)CC(c3cccnc3)N(O)C=O)CC2)cc1C (racemic) [compound 42, (R/S)-2-({4-[(3,4-dimethylbenzyl)oxy]piperidin-1-yl}sulphonyl)-1-pyridin-3-ylethyl(hydroxy)formamide] | 99% | –
O=CN(O)C(CS(=O)(=O)N1CCC(OCc2cccc(F)c2)CC1)c1ccccc1 (racemic) [compound 25, (R/S)-2-({4-[(3-fluorobenzyl)oxy]piperidin-1-yl}sulphonyl)-1-phenylethyl(hydroxy)formamide] | 97% | –
Cc1cc(COC2CCN(S(=O)(=O)CC(C)C(=O)NO)CC2)c2ccccc2n1 (racemic) [Example 12, (R/S)-2-Methyl-3-({4-[(2-methylquinolin-4-yl)methoxy]piperidin-1-yl}sulphonyl)propionic hydroxamic acid] | – | 184.7 °C
